From ChEMBL document CHEMBL1817634, “One-pot synthesis of pyrazoline derivatised carbazoles as antitubercular, anticancer agents, their DNA cleavage and antioxidant activities” (2011) come the findings set out here.

In brackets after ≈: the same amount, converted by molar mass. Activity calls are given as the source filed them. The rule behind the calls is not given here.

The nature of assay [1]: Antioxidant activity assessed as potassium ferric cyanide reducing power at 100 ug after 20 mins by spectrophotometry. It is filed as functional.
The subject of assay [2] is A549. Kind of assay: Cytotoxicity against human A549 cells. It is filed as functional.
A short description of assay [3]: Antioxidant activity assessed as potassium ferric cyanide reducing power at 10 ug after 20 mins by spectrophotometry. It counts as functional.
Another assay deals with Nucleic Acid. Kind of assay: Induction of Escherichia coli DNA cleavage at 100 ug after 2 hrs by agarose gel electrophoresis. It is filed as nucleic-acid assay.
For assay [4], the system named is A498. Kind of assay: Anticancer activity against human A498 cells assessed as cell growth at 10 ug/mL by sulforhodamine B assay. It is filed as functional. Particulars: read-out: Activity.
The nature of assay [5]: Antioxidant activity assessed as potassium ferric cyanide reducing power at 50 ug after 20 mins by spectrophotometry. It is filed as functional.
In assay [6] the test system is A549. Briefly: Anticancer activity against human A549 cells assessed as cell growth at 80 ug/mL by sulforhodamine B assay. It is filed as functional. The conditions noted are these: read-out: Activity.
Assay [7] has as its system Mycobacterium tuberculosis. Briefly: Antitubercular activity against Mycobacterium tuberculosis H37Rv after 3 weeks by turbidity assay. It is filed as functional. The conditions noted are these: 504 h.
Assay [8] relates to A549. Briefly: Anticancer activity against human A549 cells assessed as cell growth at 20 ug/mL by sulforhodamine B assay. It counts as functional. The conditions noted are these: read-out: Activity. (The SRB assay estimates cell density from bound dye.)
The test system of assay [9] is A498. Briefly: Cytotoxicity against human A498 cells. It counts as functional.
The subject of assay [10] is A498. Kind of assay: Anticancer activity against human A498 cells assessed as cell growth at 80 ug/mL by sulforhodamine B assay. It counts as functional. The conditions noted are these: read-out: Activity.
In assay [11] the test system is A549. Briefly: Anticancer activity against human A549 cells assessed as cell growth at 40 ug/mL by sulforhodamine B assay. The conditions noted are these: read-out: Activity. It counts as functional.
Assay [12] has as its system A498. Kind of assay: Anticancer activity against human A498 cells assessed as cell growth at 40 ug/mL by sulforhodamine B assay. It is filed as functional. The conditions noted are these: read-out: Activity.
For assay [13], the system named is A549. Kind of assay: Anticancer activity against human A549 cells assessed as cell growth at 10 ug/mL by sulforhodamine B assay. It is filed as functional. Particulars: read-out: Activity.
Assay [14] has as its system A498. Briefly: Anticancer activity against human A498 cells assessed as cell growth at 20 ug/mL by sulforhodamine B assay. It counts as functional. The conditions noted are these: read-out: Activity.

One may read the GI50 as the concentration that inhibits growth by half. Low values mean greater sensitivity of the cells, high ones lower sensitivity of the cells. A word on the LC50: it is the concentration that kills 50% of the test population. High values mean lower toxicity, low ones greater toxicity. The TGI is the concentration giving total growth inhibition. A low value points to more potent growth arrest. A word on the MIC: it is the lowest concentration that inhibits growth of the organism. Read a low MIC as a more susceptible organism. As for `Oc1ccc(C2CC(c3ccc4[nH]c5c(c4c3)CCCC5)=NN2)cc1` (configuration not stated), the values for the reducing power in assay [1], in assay [3] and in assay [5] were 0.25 absorbance, 0.125 absorbance and 0.14 absorbance, respectively. Also, the GI50 was 76.5 µg/mL (≈ 231 µM) in the assay with A549 [2] and 74.5 µg/mL (≈ 225 µM) with A498 [9]. Besides, the LC50 with A549 [2] and with A498 [9] was more than 70 µg/mL each time. Besides, the TGI in the assay with A549 [2] and in the assay with A498 [9] was more than 70 µg/mL throughout. The outcome in the assay with Nucleic Acid was inactive. Besides, the results for the growth at 10 µg/mL in the assay on A498 [4] and in the assay on A549 [13] were 83% and 83.2%, respectively. In addition, the growth at 80 µg/mL in the assay on A549 [6] turned out to be 11.5%; in the assay with A498 [10], 3.9%. Further, the lowest concentration to inhibit growth in assay [7] (MIC) was 3.5 µg/mL (≈ 10.6 µM). In addition, the growth at 20 µg/mL in the assay on A549 [8] amounted to 74.6%; with A498 [14], 86%. Moreover, the growth at 40 µg/mL with A549 [11] is 67.1%; in the assay on A498 [12] it was 83%.
Consider `Oc1ccccc1C1CC(c2ccc3[nH]c4c(c3c2)CCCC4)=NN1` (configuration not stated), for which the reducing power is 0.246 absorbance in assay [1], 0.118 absorbance in assay [3] and 0.137 absorbance in assay [5]. Further, the GI50 in the assay on A549 [2] was 75.7 µg/mL (≈ 228 µM); in the assay on A498 [9] it was 62.3 µg/mL (≈ 188 µM). Also, the LC50 in the assay on A549 [2] is more than 70 µg/mL; with A498 [9], more than 80 µg/mL. Moreover, the TGI is more than 70 µg/mL in the assay on A549 [2] and more than 80 µg/mL in the assay on A498 [9]. Besides, the result with Nucleic Acid was inactive. For the same molecule, the growth at 10 µg/mL amounted to 99.3% with A498 [4] and 11.9% in the assay with A549 [13]. Moreover, the growth at 80 µg/mL with A549 [6] is -28.4%; in the assay with A498 [10] it was 16.5%. For the same molecule, in assay [7], the MIC is 4.5 µg/mL (≈ 13.6 µM). The growth at 20 µg/mL with A549 [8] is -2.9%; with A498 [14] it was 99.5%. The growth at 40 µg/mL with A549 [11] is -18.5%; in the assay with A498 [12] it was 97.7%.
With `Cc1ccc(C2CC(c3ccc4[nH]c5c(c4c3)CCCC5)=NN2)cc1` (configuration not stated), the reducing power in assay [1] was 0.17 absorbance; in [3] it was 0.05 absorbance; in assay [5] it was 0.11 absorbance. For the same molecule, the GI50 in the assay on A549 [2] is 74.3 µg/mL (≈ 226 µM); with A498 [9], 54 µg/mL (≈ 164 µM). Moreover, the LC50 in the assay with A549 [2] and with A498 [9] was more than 80 µg/mL throughout. In addition, the TGI in the assay on A549 [2] and in the assay with A498 [9] was more than 80 µg/mL throughout. Also, in the assay on Nucleic Acid, the outcome was inactive. Besides, the growth at 10 µg/mL turned out to be 99.3% in the assay on A498 [4] and 11.9% with A549 [13]. Further, the growth at 80 µg/mL was -28.4% with A549 [6] and 4.6% in the assay on A498 [10]. This molecule also yielded an MIC in [7] of 12 µg/mL (≈ 36.4 µM). The growth at 20 µg/mL in the assay on A549 [8] was -2.9%; in the assay on A498 [14] it was 99.2%. For the same molecule, the results for the growth at 40 µg/mL in the assay with A549 [11] and with A498 [12] were -18.5% and 96.2%, respectively.
On to `O=[N+]([O-])c1ccc(C2CC(c3ccc4[nH]c5c(c4c3)CCCC5)=NN2)cc1` (configuration not stated), for which the reducing power in assay [1] came out at 0.675 absorbance; in assay [3], 0.195 absorbance; in assay [5], 0.475 absorbance. Further, the GI50 was 38.2 µg/mL (≈ 106 µM) with A549 [2] and 56.2 µg/mL (≈ 156 µM) with A498 [9]. Further, the LC50 in the assay with A549 [2] and with A498 [9] was more than 80 µg/mL in each case. Also, the TGI in the assay with A549 [2] and in the assay on A498 [9] was more than 80 µg/mL throughout. Further, in the assay with Nucleic Acid, the outcome was Active. In addition, the growth at 10 µg/mL in the assay on A498 [4] came out at 100%; in the assay on A549 [13], 70.1%. The growth at 80 µg/mL with A549 [6] worked out at 4.2%; with A498 [10] it was 4.1%. In assay [7], this molecule displayed an MIC of 10 µg/mL (≈ 27.7 µM). For the same molecule, the growth at 20 µg/mL turned out to be 64.4% in the assay with A549 [8] and 100% with A498 [14]. The growth at 40 µg/mL in the assay with A549 [11] came out at 50.4%; in the assay with A498 [12], 97.7%.
In the case of `Clc1cccc(C2CC(c3ccc4[nH]c5c(c4c3)CCCC5)=NN2)c1` (configuration not stated), the values for the reducing power in assay [1], in assay [3] and in assay [5] were 0.147 absorbance, 0.015 absorbance and 0.066 absorbance, respectively. In addition, the GI50 came out at 49.8 µg/mL (≈ 142 µM) in the assay with A549 [2] and 74.3 µg/mL (≈ 212 µM) in the assay with A498 [9]. In addition, the LC50 in the assay with A549 [2] and in the assay on A498 [9] was more than 80 µg/mL each time. Besides, the TGI in the assay on A549 [2] and in the assay on A498 [9] was more than 80 µg/mL throughout. Moreover, the result with Nucleic Acid was inactive. The results for the growth at 10 µg/mL in the assay with A498 [4] and in the assay on A549 [13] were 100% and 81.6%, respectively. The growth at 80 µg/mL with A549 [6] came to 15.3%; in the assay with A498 [10], 33.5%. In assay [7], this molecule displayed an MIC of 4.5 µg/mL (≈ 12.9 µM). In addition, the growth at 20 µg/mL with A549 [8] was found to be 76.2%; in the assay on A498 [14] it was 100%. The results for the growth at 40 µg/mL with A549 [11] and in the assay on A498 [12] were 69.4% and 97.9%, respectively.
In the case of `c1ccc(C2CC(c3ccc4[nH]c5c(c4c3)CCCC5)=NN2)cc1` (configuration not stated), the reducing power turned out to be 0.126 absorbance in assay [1], 0.01 absorbance in assay [3] and 0.102 absorbance in [5]. The values for the GI50 in the assay on A549 [2] and with A498 [9] were more than 80 µg/mL and 55.6 µg/mL (≈ 176 µM), respectively. Further, the LC50 in the assay on A549 [2] and in the assay on A498 [9] was more than 80 µg/mL each time. Further, the TGI in the assay on A549 [2] and in the assay on A498 [9] was more than 80 µg/mL in each case. Further, the result with Nucleic Acid was inactive. For the same molecule, the growth at 10 µg/mL in the assay on A498 [4] was found to be 100%; in the assay on A549 [13], 98.8%. Besides, the growth at 80 µg/mL is 48.7% in the assay on A549 [6] and 3.9% in the assay on A498 [10]. Besides, the MIC in assay [7] was found to be 12 µg/mL (≈ 38 µM). For the same molecule, the growth at 20 µg/mL was 94.8% with A549 [8] and 99.1% with A498 [14]. Moreover, the growth at 40 µg/mL with A549 [11] is 88.4%; in the assay with A498 [12] it was 95.9%.
With `Clc1ccc(C2CC(c3ccc4[nH]c5c(c4c3)CCCC5)=NN2)cc1` (configuration not stated), the reducing power in [1] is 0.303 absorbance; in [3] it was 0.011 absorbance; in assay [5], 0.191 absorbance. The GI50 in the assay with A549 [2] is 47.6 µg/mL (≈ 136 µM); in the assay with A498 [9] it was 72.7 µg/mL (≈ 208 µM). For the same molecule, the LC50 in the assay with A549 [2] and with A498 [9] was more than 80 µg/mL each time. The TGI in the assay on A549 [2] and in the assay on A498 [9] was more than 80 µg/mL each time. Besides, the result with Nucleic Acid was Active. Moreover, the growth at 10 µg/mL with A498 [4] is 100%; with A549 [13], 83.2%. Further, the growth at 80 µg/mL with A549 [6] came to 11.5%; in the assay with A498 [10], 31.7%. For the same molecule, the lowest concentration to inhibit growth in assay [7] (MIC) was 3.5 µg/mL (≈ 10 µM). For the same molecule, the growth at 20 µg/mL worked out at 74.6% in the assay with A549 [8] and 100% with A498 [14]. Also, the growth at 40 µg/mL is 67.1% in the assay on A549 [11] and 97.5% in the assay on A498 [12].
`CC1CC(c2ccc3[nH]c4c(c3c2)CCCC4)=NN1` (configuration not stated): the figures for the reducing power in assay [1], in assay [3] and in [5] were 0.13 absorbance, 0.02 absorbance and 0.105 absorbance, respectively. Moreover, the results for the GI50 in the assay with A549 [2] and in the assay on A498 [9] were 52.5 µg/mL (≈ 207 µM) and 55.2 µg/mL (≈ 218 µM), respectively. For the same molecule, the LC50 in the assay on A549 [2] and in the assay with A498 [9] was more than 70 µg/mL throughout. Moreover, the TGI in the assay with A549 [2] and in the assay on A498 [9] was more than 70 µg/mL throughout. In addition, the outcome in the assay on Nucleic Acid was inactive. Also, the growth at 10 µg/mL is 80% in the assay with A498 [4] and 90.2% in the assay on A549 [13]. The growth at 80 µg/mL with A549 [6] was found to be 12.1%; in the assay with A498 [10], 4%. This molecule also yielded an MIC in assay [7] of 3.5 µg/mL (≈ 13.8 µM). In addition, the figures for the growth at 20 µg/mL with A549 [8] and in the assay with A498 [14] were 81.6% and 82%, respectively. Further, the growth at 40 µg/mL in the assay with A549 [11] was 75.7%; in the assay on A498 [12] it was 85%.
